Reference: PMC12040169 (PLOS Biology, 2025)

Assay: in vitro
Details: human, hela cells, % viability

Structure (SMILES) | viability at 28.5 h, 10 µM
Cc1nn(-c2ccc3nnc(C)n3n2)c2c1C(c1ccccc1F)CC(=O)N2 (stereo not drawn) [CBK287898] | 83.3%
O=C1N(c2ccc(Cl)cc2)Cc2nc(=O)[nH]n21 [CBK287899] | 91.6%
O=C(Nc1ccccc1)c1ccc(F)cc1-n1cnnn1 [CBK287903] | 111%
N#Cc1c2c(c(-c3ccccc3)[nH]c1=O)CCCC2 [CBK287905] | 91.6%
O=c1cc(O)c2c(=O)[nH]c(=O)n(-c3ccccc3)c2[nH]1 [CBK287907] | 88.2%
COc1ccc(C2=NNC(=O)C(c3ccc(OC)cc3)C2)cc1 (stereo not drawn) [CBK287908] | 99.7%
COc1ccc(C2CC(=O)c3c(C)n[nH]c3C2)cc1 (stereo not drawn) [CBK287911] | 114%
CN(C)CCCn1cnc2c1c(=O)[nH]c(=O)n2C [CBK287913] | 92.2%
Cc1cc(C)nc(Nc2ncc(O)n2-c2ccccc2)n1 [CBK287914] | 93.5%
CCN(CC)CCNc1nc2c(=O)[nH]c(=O)n(C)c2[nH]1 [CBK287918] | 116%
Cc1[nH]nc2c1C(c1ccc(Cl)cc1)N(CCc1c[nH]c3ccccc13)C2=O (stereo not drawn) [CBK287919] | 114%
CC1=Nc2c(cnn2-c2ccccc2)C2=NCCCN12 [CBK287928] | 91.6%
Cc1c(C)n(Cc2cccnc2)c2ncn(C3CCCCCC3)c(=N)c12 [CBK287932] | 85.9%
OCCNc1ncnc2c1ncn2Cc1ccccc1 [CBK287933] | 106%
COc1cc(/C=C/c2cc(C(F)(F)F)[nH]c(=O)n2)c(Cl)cc1O [CBK287936] | 80%
CCCCC(=O)/N=C(\N)Nc1nc2ccccc2o1 [CBK287937] | 87.8%
Cc1cc(Cl)ccc1OCC(=O)Nc1nnc[nH]1 [CBK287940] | 86.3%
COc1cccc(C2=CC(c3ccccc3Cl)N3N=NNC3=N2)c1 (stereo not drawn) [CBK287943] | 84.4%
c1ccc(Oc2nc3ccccc3n3cnnc23)cc1 [CBK287945] | 91.9%
O=C(COc1ccccc1Cl)Nc1nnc[nH]1 [CBK287946] | 80.1%
CC(C)c1nc2c(c(=O)c3ccccc3n2C)c(=O)n1-c1ccccc1 [CBK287947] | 97.6%
CC1CCCN(c2ncnc3c2[nH]c2ccccc23)C1 (stereo not drawn) [CBK287948] | 106%
CCc1cccc(C)c1N(C(=O)Cn1c(=O)[nH]c2ccccc21)C(C)COC (stereo not drawn) [CBK287950] | 80.1%
CN1CCc2c(c(NCC3CCCO3)nc3[nH]nc(N)c23)C1 (stereo not drawn) [CBK287955] | 103%

Structure (SMILES) | viability at 28.5 h, 10 µM
Cc1cc(C)c2c3c(sc2n1)C(=O)N(C)CC(=O)N3 [CBK287959] | 83.8%
COc1ccccc1Nc1nc(C)cc(C)c1C(N)=O [CBK287960] | 82.7%
CCc1c(C)nc2c(-c3ccc(OC)c(OC)c3)cnn2c1O [CBK287962] | 87%
CC(C)c1nc(-c2cc3ccccc3nc2O)no1 [CBK287964] | 112%
Cc1ccc(-n2c3nc(=O)[nH]c(=O)c-3cc3c(Cl)cccc32)c(C)c1 [CBK287965] | 83.3%
COc1ccc(C2=CC(c3ccc(Cl)cc3)N3N=CNC3=N2)cc1OC (stereo not drawn) [CBK287966] | 84.3%
O=C(c1ccccc1)c1cn[nH]c1-c1ccccc1O [CBK287970] | 77.8%
O=C(Nc1ccncc1)C1(c2ccccc2)CCCC1 [CBK287972] | 111%
c1cncc(-c2noc(-c3cc(C4CC4)[nH]n3)n2)c1 [CBK287973] | 94.7%
CC(=O)Nc1ccc(-c2nc3cnccc3o2)cc1 [CBK287975] | 85.9%
c1csc(-c2ccn3c(n2)nc2ccccc23)c1 [CBK287976] | 83.9%
Cc1nc(-c2ccccc2F)sc1C(=O)Nc1ccccn1 [CBK287979] | 98.8%
C=C(C)Cn1c(=O)nc(N)c2c3c(sc21)CCC3 [CBK287986] | 88.2%
COc1ccc(-c2cnn3c(N)c4c(nc23)CCC4)cc1 [CBK287987] | 97.4%
O=C(CCc1nc2ccccc2s1)Nc1nc2ccccc2[nH]1 [CBK287988] | 114%
O=C(Nc1ccccn1)c1cc(O)c(OCc2ccccc2)cn1 [CBK287989] | 89.5%
O=C(NC1CCCC1)c1ccc2c(=O)[nH]cnc2c1 [CBK287990] | 90.1%
COc1ccc(C2(C(=O)NCc3ccncc3)CCOCC2)cc1 [CBK287991] | 103%
COc1cnc(C(=O)NCc2ccccc2Cl)cc1O [CBK287993] | 84.6%
O=C(Nc1ccccc1-n1cnnn1)c1ccccc1Cl [CBK287994] | 95%
COc1ccccc1CCC(=O)Nc1cnn(C)c1 [CBK287995] | 117%
Cc1ccc(C2CC(=O)Nc3nc(-c4ccccc4)[nH]c(=O)c32)c(C)c1 (stereo not drawn) [CBK287998] | 108%
O=c1[nH]cnc2c1cnn2Cc1ccccc1Cl [CBK287999] | 97.1%
O=C1CC(c2cc(F)ccc2F)c2c(-c3ccc(Cl)cc3)n[nH]c2N1 (stereo not drawn) [CBK288000] | 110%
